Laboratory results: ChEMBL document CHEMBL3872244, “Synthesis, evaluation and molecular modelling studies of 2-(carbazol-3-yl)-2-oxoacetamide analogues as a new class of potential pancreatic lipase inhibitors” (Bioorg Med Chem, 2017)
Calls of active or inactive are those of the source. The calls are words filed in the database; no cut-off is given here.

How the values were obtained:
[1] = biological target: T1, Pancreatic triacylglycerol lipase (Sus scrofa, UniProt P00591); assay: Inhibition of porcine pancreatic lipase assessed as reduction in 4-nitrophenol formation from 4-nitrophenyl butyrate substrate preincubated for 30 mins followed by substrate addition measured after 5 mins by spectrophotometer
T1 sequence (P00591 whole entry): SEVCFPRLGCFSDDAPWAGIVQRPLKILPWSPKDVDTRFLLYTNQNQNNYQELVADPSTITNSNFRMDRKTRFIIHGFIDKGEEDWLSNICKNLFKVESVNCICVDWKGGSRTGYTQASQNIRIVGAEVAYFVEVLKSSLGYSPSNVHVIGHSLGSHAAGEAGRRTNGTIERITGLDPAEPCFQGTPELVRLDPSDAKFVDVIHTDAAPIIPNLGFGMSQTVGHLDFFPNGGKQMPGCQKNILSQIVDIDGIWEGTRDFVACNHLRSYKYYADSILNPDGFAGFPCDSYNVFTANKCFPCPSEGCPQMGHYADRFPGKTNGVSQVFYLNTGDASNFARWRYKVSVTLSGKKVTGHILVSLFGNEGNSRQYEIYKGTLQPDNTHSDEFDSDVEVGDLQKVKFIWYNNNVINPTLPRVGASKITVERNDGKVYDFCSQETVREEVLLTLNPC

[2] = biological target: T2, Pancreatic triacylglycerol lipase (Homo sapiens, UniProt P16233); assay: Inhibition of pancreatic lipase (unknown origin)
T2 sequence (P16233 whole entry): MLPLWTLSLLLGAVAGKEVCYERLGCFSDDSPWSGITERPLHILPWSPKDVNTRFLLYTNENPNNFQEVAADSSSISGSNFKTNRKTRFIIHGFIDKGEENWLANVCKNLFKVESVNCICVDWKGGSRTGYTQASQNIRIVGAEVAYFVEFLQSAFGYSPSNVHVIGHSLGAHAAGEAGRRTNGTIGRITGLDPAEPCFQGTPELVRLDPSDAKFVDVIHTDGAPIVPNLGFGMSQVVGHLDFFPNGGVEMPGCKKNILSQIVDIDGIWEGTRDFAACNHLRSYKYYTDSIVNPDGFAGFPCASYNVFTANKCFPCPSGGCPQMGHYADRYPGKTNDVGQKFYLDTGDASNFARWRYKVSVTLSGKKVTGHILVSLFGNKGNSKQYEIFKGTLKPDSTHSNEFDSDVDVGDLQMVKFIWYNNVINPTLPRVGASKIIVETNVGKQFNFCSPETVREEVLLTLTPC

[3] = biological target: T3, Pancreatic triacylglycerol lipase (Sus scrofa) (UniProt P00591); assay: Inhibition of porcine pancreatic lipase using tributyrin as substrate incubated for 30 mins measured at 1 min time interval for 5 mins in presence of NaTDC in incubation medium by pH-Stat method
T3 sequence (whole entry): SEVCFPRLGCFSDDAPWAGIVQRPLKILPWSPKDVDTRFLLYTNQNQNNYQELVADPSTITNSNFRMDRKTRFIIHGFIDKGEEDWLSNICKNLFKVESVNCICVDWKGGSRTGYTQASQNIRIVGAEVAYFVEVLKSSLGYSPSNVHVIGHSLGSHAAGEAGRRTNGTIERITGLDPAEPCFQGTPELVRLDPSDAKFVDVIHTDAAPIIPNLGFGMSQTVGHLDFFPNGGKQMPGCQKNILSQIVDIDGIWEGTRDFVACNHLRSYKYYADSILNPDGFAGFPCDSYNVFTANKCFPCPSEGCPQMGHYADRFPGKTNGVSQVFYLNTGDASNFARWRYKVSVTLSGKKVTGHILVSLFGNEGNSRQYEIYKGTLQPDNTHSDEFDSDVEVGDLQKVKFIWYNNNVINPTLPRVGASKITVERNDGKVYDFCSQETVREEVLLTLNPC

[4] = biological target: T3, Pancreatic triacylglycerol lipase (Sus scrofa); assay: Inhibition of porcine pancreatic lipase using tributyrin as substrate preincubated for 30 mins measured at 1 min time interval for 5 mins in presence of NaTDC in reaction mixture by pH-Stat method
[5] = biological target: T1, Pancreatic triacylglycerol lipase; assay: Competitive inhibition of porcine pancreatic lipase 4-nitrophenyl butyrate substrate preincubated for 30 mins followed by substrate addition measured after 5 mins by Dixon plot method
[6] = compound: CCCCCCCCCCC[C@@H](C[C@@H]1OC(=O)[C@H]1CCCCCC)OC(=O)[C@H](CC(C)C)NC=O; assay: (§1) Competitive inhibition of porcine pancreatic lipase assessed as enzyme Vmax in presence of varying levels of 4-nitophenyl butyrate by Lineweaver-burk plot method; conditions: Sus scrofa
[7] = compound: COc1cc(NC(=O)C(=O)c2ccc3[nH]c4ccccc4c3c2)cc(OC)c1OC; assay: as §1; conditions: Sus scrofa
[8] = compound: COc1ccc(NC(=O)C(=O)c2ccc3c(c2)c2ccccc2n3Cc2ccc(Cl)cc2)cc1OC; assay: as §1; conditions: Sus scrofa
[9] = compound: COc1cc(NC(=O)C(=O)c2ccc3c(c2)c2ccccc2n3Cc2ccc(Cl)cc2)cc(OC)c1OC; assay: as §1; conditions: Sus scrofa
[10] = compound: CCCCCCCCCCC[C@@H](C[C@@H]1OC(=O)[C@H]1CCCCCC)OC(=O)[C@H](CC(C)C)NC=O; assay: (§2) Competitive inhibition of porcine pancreatic lipase assessed as enzyme Km at 10 uM in presence of varying levels of 4-nitophenyl butyrate by Lineweaver-burk plot method; conditions: Sus scrofa
[11] = compound: COc1cc(NC(=O)C(=O)c2ccc3[nH]c4ccccc4c3c2)cc(OC)c1OC; assay: as §2; conditions: Sus scrofa
[12] = compound: COc1ccc(NC(=O)C(=O)c2ccc3c(c2)c2ccccc2n3Cc2ccc(Cl)cc2)cc1OC; assay: as §2; conditions: Sus scrofa
[13] = compound: COc1cc(NC(=O)C(=O)c2ccc3c(c2)c2ccccc2n3Cc2ccc(Cl)cc2)cc(OC)c1OC; assay: as §2; conditions: Sus scrofa
[14] = compound: CCCCCCCCCCC[C@@H](C[C@@H]1OC(=O)[C@H]1CCCCCC)OC(=O)[C@H](CC(C)C)NC=O; assay: (§3) Competitive inhibition of porcine pancreatic lipase assessed as enzyme Km at 5 uM in presence of varying levels of 4-nitophenyl butyrate by Lineweaver-burk plot method; conditions: Sus scrofa
[15] = compound: COc1cc(NC(=O)C(=O)c2ccc3[nH]c4ccccc4c3c2)cc(OC)c1OC; assay: as §3; conditions: Sus scrofa
[16] = compound: COc1ccc(NC(=O)C(=O)c2ccc3c(c2)c2ccccc2n3Cc2ccc(Cl)cc2)cc1OC; assay: as §3; conditions: Sus scrofa
[17] = compound: COc1cc(NC(=O)C(=O)c2ccc3c(c2)c2ccccc2n3Cc2ccc(Cl)cc2)cc(OC)c1OC; assay: as §3; conditions: Sus scrofa
[18] = compound: CCCCCCCCCCC[C@@H](C[C@@H]1OC(=O)[C@H]1CCCCCC)OC(=O)[C@H](CC(C)C)NC=O; assay: (§4) Competitive inhibition of porcine pancreatic lipase assessed as enzyme Km at 20 uM in presence of varying levels of 4-nitophenyl butyrate by Lineweaver-burk plot method; conditions: Sus scrofa
[19] = compound: COc1cc(NC(=O)C(=O)c2ccc3[nH]c4ccccc4c3c2)cc(OC)c1OC; assay: as §4; conditions: Sus scrofa
[20] = compound: COc1ccc(NC(=O)C(=O)c2ccc3c(c2)c2ccccc2n3Cc2ccc(Cl)cc2)cc1OC; assay: as §4; conditions: Sus scrofa
[21] = compound: COc1cc(NC(=O)C(=O)c2ccc3c(c2)c2ccccc2n3Cc2ccc(Cl)cc2)cc(OC)c1OC; assay: as §4; conditions: Sus scrofa

O=C(Nc1ccc2ncccc2c1)C(=O)c1ccc2c(c1)c1ccccc1n2Cc1ccc(Cl)cc1
IC50 [1]: 23 µM

Cc1ccc(NC(=O)C(=O)c2ccc3c(c2)c2ccccc2n3Cc2ccc(Cl)cc2)cc1
IC50 [1]: 13.5 µM

COc1cc2[nH]c3c4c(c(C)cc3c2cc1OC)OC(C)(C)C=C4
IC50 [2]: 429 µM

CCn1c2ccccc2c2cc(C(=O)C(=O)Nc3ccc(N(C)C)cc3)ccc21
IC50 [1]: 56.2 µM

COc1cc(NC(=O)C(=O)c2ccc3c(c2)c2ccccc2n3Cc2ccc(Cl)cc2)cc(OC)c1OC
inhibition [3]: Active | IC50 [1]: 8.72 µM | XI50 [4]: 21.9 | Ki [5]: 19.6 µM

COc1ccc2[nH]c3c4c(c(C)cc3c2c1)OC(C)(C)C=C4 [KOENIMBINE]
IC50 [2]: 169 µM

O=C(Nc1ccncc1)C(=O)c1ccc2[nH]c3ccccc3c2c1
IC50 [1]: 29.4 µM

COc1ccc(NC(=O)C(=O)c2ccc3[nH]c4ccccc4c3c2)cc1
IC50 [1]: 19.3 µM

Cn1c2ccccc2c2cc(C(=O)C(=O)Nc3ccccc3)ccc21
IC50 [1]: 36.2 µM

CN(C)c1ccc(NC(=O)C(=O)c2ccc3c(c2)c2ccccc2n3Cc2ccc(Cl)cc2)cc1
IC50 [1]: 14.8 µM

CC(C)=CCCC1(C)C=Cc2c(c(C)cc3c2[nH]c2ccccc23)O1 (stereo not drawn) [MAHANIMBINE]
IC50 [2]: 17.9 µM

CCn1c2ccccc2c2cc(C(=O)C(=O)Nc3cc(OC)c(OC)c(OC)c3)ccc21
IC50 [1]: 11.4 µM

O=C(Nc1ccncc1)C(=O)c1ccc2c(c1)c1ccccc1n2Cc1ccc(Cl)cc1
IC50 [1]: 19.9 µM

O=C(Nc1ccc(F)cc1)C(=O)c1ccc2c(c1)c1ccccc1n2Cc1ccc(Cl)cc1
IC50 [1]: 28 µM

COc1ccc(NC(=O)C(=O)c2ccc3c(c2)c2ccccc2n3Cc2ccc(Cl)cc2)cc1
IC50 [1]: 14.8 µM

COc1cccc(NC(=O)C(=O)c2ccc3c(c2)c2ccccc2n3Cc2ccc(Cl)cc2)c1
IC50 [1]: 26.6 µM

CCn1c2ccccc2c2cc(C(=O)C(=O)Nc3ccc4ncccc4c3)ccc21
IC50 [1]: 15.5 µM

Cc1cnc(NC(=O)C(=O)c2ccc3c(c2)c2ccccc2n3Cc2ccc(Cl)cc2)s1
IC50 [1]: 32.8 µM

COc1ccc(NC(=O)C(=O)c2ccc3[nH]c4ccccc4c3c2)cc1OC
IC50 [1]: 44.1 µM

CCCCCCCCCCC[C@@H](C[C@@H]1OC(=O)[C@H]1CCCCCC)OC(=O)[C@H](CC(C)C)NC=O
XI50 [4]: 3.14

CCn1c2ccccc2c2cc(C(=O)C(=O)Nc3ccc(OC)c(OC)c3)ccc21
IC50 [1]: 16.4 µM

COc1ccc(NC(=O)C(=O)c2ccc3c(c2)c2ccccc2n3Cc2ccc(Cl)cc2)cc1OC
inhibition [3]: Active | IC50 [1]: 6.31 µM | XI50 [4]: 21.9 | Ki [5]: 17.5 µM

O=C(Nc1ccccc1)C(=O)c1ccc2c(c1)c1ccccc1n2Cc1ccc(Cl)cc1
IC50 [1]: 13.9 µM

COc1cc(NC(=O)C(=O)c2ccc3c(c2)c2ccccc2n3C)cc(OC)c1OC
IC50 [1]: 23.1 µM

O=C(Nc1ccccc1)C(=O)c1ccc2[nH]c3ccccc3c2c1
IC50 [1]: 29.7 µM

COc1cccc(NC(=O)C(=O)c2ccc3[nH]c4ccccc4c3c2)c1
IC50 [1]: 33 µM

CCn1c2ccccc2c2cc(C(=O)C(=O)Nc3ccccc3)ccc21
IC50 [1]: 24.2 µM

COc1cc(NC(=O)C(=O)c2ccc3[nH]c4ccccc4c3c2)cc(OC)c1OC
inhibition [3]: Active | IC50 [1]: 9.58 µM | XI50 [4]: 26.2 | Ki [5]: 21.6 µM

B1: Pancreatic triacylglycerol lipase (Sus scrofa), P00591 (protein)
chain: SEVCFPRLGCFSDDAPWAGIVQRPLKILPWSPKDVDTRFLLYTNQNQNNYQELVADPSTITNSNFRMDRKTRFIIHGFIDKGEEDWLSNICKNLFKVESVNCICVDWKGGSRTGYTQASQNIRIVGAEVAYFVEVLKSSLGYSPSNVHVIGHSLGSHAAGEAGRRTNGTIERITGLDPAEPCFQGTPELVRLDPSDAKFVDVIHTDAAPIIPNLGFGMSQTVGHLDFFPNGGKQMPGCQKNILSQIVDIDGIWEGTRDFVACNHLRSYKYYADSILNPDGFAGFPCDSYNVFTANKCFPCPSEGCPQMGHYADRFPGKTNGVSQVFYLNTGDASNFARWRYKVSVTLSGKKVTGHILVSLFGNEGNSRQYEIYKGTLQPDNTHSDEFDSDVEVGDLQKVKFIWYNNNVINPTLPRVGASKITVERNDGKVYDFCSQETVREEVLLTLNPC
Vmax [6]: 15.2 µM/min | Vmax [7]: 15 µM/min | Vmax [8]: 15.2 µM/min | Vmax [9]: 15.5 µM/min | Km [10]: 228 µM | Km [11]: 151 µM | Km [12]: 156 µM | Km [13]: 152 µM | Km [14]: 197 µM | Km [15]: 123 µM | Km [16]: 129 µM | Km [17]: 126 µM | Km [18]: 253 µM | Km [19]: 163 µM | Km [20]: 179 µM | Km [21]: 165 µM
